Experiment: Human HepG2 cell viability assay in 384 well format
Format: toxicity, cell-based
Set-up: dose 125 nL, time 70.5 hour; cytotoxicity at 70.5 h: concentration not given beside the values
Settings: HepG2 cells, read-out: Inhibition

| Structure (SMILES) | cytotoxicity at 70.5 h [%] |
| --- | --- |
| CCCN1CCCN(C(=O)c2ccc(Oc3cccnc3)cc2)CC1 | -8.42 |
| CC(C)(C)CNC[C@H]1Cn2ccnc2CO1 | -4.98 |
| CC(Cn1cccn1)NC(=O)NCCCN1CCCCCC1=O (centres undefined) | 0.306 |
| c1cc2nc(C3CCN(CC4CC4)CC3)nn2cc1N1CCCC1 | -4.49 |
| NC(=O)CN1CCC(NC2CSCCc3ccccc32)CC1 (centres undefined) | 5.08 |
| O=C(CCNC(=O)c1ccoc1)Nc1c(F)cccc1F | -1.23 |
| COc1ccc(C2CN(c3ncccn3)CCN2C(C)=O)cc1 (centres undefined) | -5.51 |
| N#CC1(C(=O)N2C[C@H](Nc3ncccn3)[C@@H](C3CC3)C2)CCOCC1 | -15.6 |
| COc1cccc(N2CC3(CCN(c4cnccn4)C3)CC2=O)c1 (centres undefined) | 13.8 |
| CCOC(=O)N1CCC(OC)c2ccccc2N(CC(=O)NC)C(=O)C1 (centres undefined) | -3.27 |
| Cc1nc(NC(C)C)nc2c1CN(Cc1nccn1C)CC2 | 0.21 |
| COCc1nc(C(=O)NS(=O)(=O)c2ccc(F)c(F)c2)cs1 | -6.1 |
| CCN(Cc1ccc(OC)c(F)c1)C(=O)c1ccc(C)[nH]c1=O | -3.76 |
| O=C(NCCc1ccccn1)Nc1cc(C(F)(F)F)c[nH]c1=O | -2.62 |
| Cc1cc(C)n(CC2CCCN2CC(=O)N(C)Cc2ccc(C)o2)n1 (centres undefined) | 18 |
| O=C(CSc1ccccc1)Nc1cnn(CC(=O)N2CCCO2)c1 | -2.01 |
| CCn1ncc2c1C(COCC1CC1)N(Cc1ccccn1)CC2 (centres undefined) | -1.07 |
| O=C(c1cccs1)N1CC[C@@H]2[C@H]1CCC(=O)N2c1ccccc1 | -16.9 |
| O=C(c1ccc(S(=O)(=O)NCCc2ccncc2)cc1)N1CCCC1 | -19.6 |
| Cc1ccc2nc(C3CCN(CCO)CC3)nn2c1 | 21.1 |
| CCC(CO)NC(=O)Nc1cc(F)ccc1SCC(F)F (centres undefined) | -11.1 |
| COc1ccccc1OCC(=O)NCC(O)(c1ccccc1)C1CC1 (centres undefined) | -3.14 |
| O=S(=O)(NCc1ccnc(-n2ccnc2)c1)c1cncc(F)c1 | -1.94 |

| Structure (SMILES) | cytotoxicity at 70.5 h [%] |
| --- | --- |
| CC(C)(C)C(=O)NCCC(=O)NS(=O)(=O)c1cccnc1 | 9.3 |
| Cc1cc(C(=O)NC(C)CC(=O)c2ccco2)[nH]n1 (centres undefined) | 15.2 |
| O=C(NCCc1ccccn1)[C@@H]1CC[C@@H]2[C@@H](CCN2Cc2ccoc2)O1 | 0.0992 |
| CCNC(=O)CN1CCN(c2cc(C)nc(-c3ccncc3)n2)CC1 | -0.76 |
| O=C1[C@H]2CC[C@H](CN(Cc3ccccc3OC(F)F)C2)N1CC1CC1 | -7.82 |
| CCSc1nsc(NC(=O)COc2ccc3c(c2)OCO3)n1 | -8.05 |
| O=C(CN1CCc2ccccc21)Nc1ccc(OC(F)F)cc1 | 9.55 |
| Cc1ccc(CN2CCC3(CCN(S(=O)(=O)c4ccccc4)C3)C2)o1 (centres undefined) | 27.1 |
| CC1CN(C)c2ccccc2CN1C(=O)c1ccncc1 (centres undefined) | 0.805 |
| CN(C)c1nccc(C2CCN(C3CCCCC3O)CC2)n1 (centres undefined) | 21.1 |
| CS(=O)(=O)CCCNc1cccc(COC2CCCCC2)c1 | -12.7 |
| Cn1ccc(CN2CCCC(CNS(C)(=O)=O)C2)cc1=O (centres undefined) | -10.1 |
| Cc1nn(C)cc1CN(C)C(=O)c1ccccn1 | 1.81 |
| CN1CCC(Cc2nc(-c3ccnn3C)n(Cc3ccccc3)n2)CC1 | 12.7 |
| c1cc(CN2CCC(CCn3cccn3)CC2)cc(Cn2cccn2)c1 | -2.62 |
| NC(=O)c1cnn2c1NCC(CNCC1(c3ccccc3)CCC1)C2 (centres undefined) | 10.4 |
| COCCOc1cccc(CNC(=O)CN2CCN(C)CC2C)c1 (centres undefined) | 10.3 |
| CCCc1nnc(NC(=O)N2CCCC(NC(C)=O)C2)s1 (centres undefined) | -4.43 |
| CC(CNC(=O)c1ccco1)N1CCc2sccc2C1 (centres undefined) | -4.45 |
| Cc1cc(C)nc(C2CCN(C(=O)CCn3ncc4ccccc43)C2)n1 (centres undefined) | 2.78 |
| Cc1ncsc1C(=O)N(Cc1ccccn1)C1CC1 | 10 |
| CC(C)NC(=O)[C@@H]1CC[C@@H]2[C@@H](CCN2Cc2ccc3ccccc3n2)O1 | -8.11 |
| N#Cc1ccc(CN2CCOCC2)cc1 | 2.27 |

| Structure (SMILES) | cytotoxicity at 70.5 h [%] |
| --- | --- |
| CC(=O)N1CCN(C(=O)c2cnc(OC(C)C)c(Cl)c2)CC1 | -13.6 |
| CC(=O)Nc1nc(C(=O)NCc2ccc(N3CCCC3)nc2)cs1 | -7.65 |
| Cc1noc(C)c1CN(C)C(=O)COc1cccc(C#N)c1 | -10.8 |
| CC(=O)N1CCCN(C(=O)c2cnn(C(C)(C)C)c2C)CC1 | -10.1 |
| Cc1cc(C)c(CNC(=O)N2CCCC2c2ccccn2)c(=O)[nH]1 (centres undefined) | -6.29 |
| CCOc1ccc2[nH]c(=O)c(CN(C)CCc3cn[nH]c3)cc2c1 | 4.91 |
| COc1ccc(NC(=O)CSc2nc(C)cc(C)n2)cn1 | -8.52 |
| COc1c(C2CCCN2Cc2nccn2C)c(C)nn1C (centres undefined) | 2.44 |
| CC(C)n1cc(CN2CCCN(C(=O)c3ccnn3C)CC2)cn1 | -2.89 |
| COc1cccc(-c2noc(-c3ccc(NCC4CC4)nc3)n2)c1OC | -2.04 |
| Cc1cnc(C(=O)N2CCNCC2C(=O)NCc2ccncc2)cn1 (centres undefined) | 3.98 |
| Cc1nc(CN2CCN(CC(=O)Nc3c(C)cccc3C)CC2)no1 | -5.01 |
| COCCNC(=O)c1ccnn1-c1ccc2ccccn12 | -4.72 |
| CN(Cc1ccco1)C(=O)CN1C(=O)c2cc(Cl)c(Cl)cc2C1=O | -16.6 |
| Cc1cnn(CC2CCCN2C(=O)CCc2ccncc2)c1 (centres undefined) | -1.24 |
| COc1cc(CCC(=O)NC2CCN(C)CC2)ccc1OCC(F)(F)F | -7.75 |
| CN(Cc1nnc2ccccn12)C(=O)CC1CCCCC1 | -8.16 |
| CCc1nnc2n1CCN(C(=O)c1cnc3ccccc3n1)C2 | -4.54 |
| O=C(CN1CCCNC1=O)Nc1ccccc1C(=O)C1CCCC1 | -0.928 |
| CC(C)=CCS(=O)(=O)Cc1ccn(-c2cccc(F)c2)n1 | -6.79 |
| COc1ncccc1C(=O)N1CCCC(c2cc(C)[nH]n2)C1 (centres undefined) | -2.72 |
| COCCN(Cc1ccccc1C)c1nc(C)nc2oc(C)nc12 | 0.842 |
| Cc1occc1C(=O)N1C[C@@H]2CCCO[C@@H]2[C@H](NC(=O)CC2CC2)C1 | -7.56 |

| Structure (SMILES) | cytotoxicity at 70.5 h [%] |
| --- | --- |
| Cn1nnc2cc(C(=O)NS(=O)(=O)c3cccc(C#N)c3)ccc21 | -5.98 |
| Cc1nc[nH]c1-c1nccn1CCN1CCOC1=O | -8.03 |
| CSCC(=O)N(C)Cc1ccccc1 | -6.59 |
| CNC(=O)CC1CC2(CCN(c3ncccn3)CC2)c2ccccc21 (centres undefined) | -6.77 |
| CS(=O)(=O)c1ccc(C(=O)N2CCCC(n3cccn3)C2)cc1 (centres undefined) | 0.802 |
| CC1(C)C[C@H](CCNC(=O)c2ccncc2)c2ccccc2O1 | -10 |
| CC(C)C1CN(C(=O)Nc2cnn(CC(F)F)c2)CCS1 (centres undefined) | 5.93 |
| Cn1cc(CC2CCN(C(=O)NCc3csc(C4CC4)n3)C2)cn1 (centres undefined) | 0.703 |
| Cc1ccsc1CNC1CCCc2c1cnn2C (centres undefined) | -2.66 |
| O=C(O)CSc1nnc(-c2ccn[nH]2)n1-c1cccc(C(F)(F)F)c1 | -4.2 |
| CCS(=O)(=O)N1CCC(c2nnc(CN3CCCCCC3)n2C)CC1 | -3.73 |
| CNC(=O)C1(N2CCC[C@H]2C(=O)NC2CCCCC2)CCOCC1 | 5.4 |
| O=c1c2cccc(F)c2ncn1CCN1CCNCC1 | -2.04 |
| COc1cccc(C(=O)C2CCCN(c3cc(C#N)ccn3)C2)c1 (centres undefined) | -10.3 |
| CC(c1ccccc1)N(C)C(=O)CN1CCCc2cccc(F)c21 (centres undefined) | 0.621 |
| Cc1cc(-c2ccccc2C(=O)O)nc(C2CCCN(C(C)C)C2)n1 (centres undefined) | -3.8 |
| Cn1cc(C2CCCN2C(=O)c2cnc(-c3cccs3)s2)cn1 (centres undefined) | 22.5 |
| Cn1c(Nc2cn[nH]c2)c(C#N)c(=O)n(C)c1=O | 11.5 |
| O=C(Cc1ccsc1)N1CCc2ccc(=O)n(CC3CC3)c2CC1 | -3.62 |
| CCC(NCc1ccccc1Cl)c1ccccc1OCC(=O)NC (centres undefined) | -3.07 |
| O=C(N1CC(c2cccnc2)C1)C1(c2ccc(F)cc2)CCOCC1 | 3.01 |
| N[C@@H](Cc1c[nH]cn1)C(=O)N1CCC(Oc2ccc(Cl)cc2)CC1 | 28.2 |
| Cc1cc(N2CCN(C(=O)c3cnn(C(C)C)c3)CC2)nc(N)n1 | -4.23 |

| Structure (SMILES) | cytotoxicity at 70.5 h [%] |
| --- | --- |
| Cn1c2c(c(=O)n1C)CN(C(=O)c1cnccn1)CCC2 | -8.23 |
| Cc1ccc(CC(=O)N2CCCC(c3n[nH]c4nccnc34)C2)cc1 (centres undefined) | -1.21 |
| CC(C)N1CCCC(C(=O)N2CCN(c3cccc(C(=O)O)c3)CC2)C1 (centres undefined) | 23.2 |
| COCC1CN(C(=O)Cc2ccccn2)Cc2ncnn2C1 (centres undefined) | 16.8 |
| Cc1ccsc1C(=O)N1CCC2(CC1)C(=O)N(C)CCN2CC1CC1 | -12.8 |
| Cc1cccn2c(CC(=O)N3CCC(Oc4ncccn4)CC3)cnc12 | 25.3 |
| O=C(CC1CCCC1)NCCNCc1cccc2c1OCCO2 | 4.62 |
| Cc1nc(N2CCOCC2)nc2c1CCN(Cc1nccn1C)CC2 | -11.2 |
| O=C1COC2(CCN(Cc3ccncc3)CC2)CN1CC1CC1 | 4.04 |
| Cc1cccc(CN2C(=O)CCC23CCN(C(=O)c2ccco2)CC3)n1 | 0.736 |
| Cc1cc(N2CCN(C(=O)Cc3ccc4c(c3)OCO4)CC2)cc(C)n1 | -9.94 |
| COCc1ccccc1CNC(=O)CN1CCC2(CCOC2)C1 (centres undefined) | 25 |
| Cc1nc(CN(C)C2CCCN(Cc3noc(C4CC4)n3)C2)oc1C (centres undefined) | 14.4 |
| Cc1n[nH]cc1C(=O)N1CCCC(n2nnc3cc(F)ccc32)C1 (centres undefined) | -12.2 |
| CC(C)O[C@H]1CN(C(=O)CCN2CCCCO2)C[C@@H]1O | 11.2 |
| Cc1noc(C)c1Cc1nc(C2CC2)no1 | -2.18 |
| Fc1ccc(CNCc2cc(Br)c3c(c2)OCO3)cc1 | 7.59 |
| CN1CCN(c2ncc3c(=O)n(-c4cccc(F)c4)c(=O)[nH]c3n2)CC1 | -12.6 |
| Cc1nc(N2CC[C@@H](NC(=O)c3cnccn3)[C@H](O)C2)c2ccsc2n1 | -3.33 |
| OCC1COCCN(c2ncccc2C(F)(F)F)C1 (centres undefined) | 3.25 |
| CCc1cnc(CN2CCC(O)(c3cc(OC)cc(OC)c3)CC2)o1 | -12.2 |
| CC(C)c1nnc2n1CCN(C(=O)c1cc3cc(F)ccc3[nH]1)C2 | -16.2 |
